From patent publication US20250361253A1, “STING AGONIST COMPOUNDS” (Sutro Biopharma, Inc., priority 2022, published 2025)

Legend:
mSTING = biological target: T1, mSTING (Mus musculus, UniProt Q3TBT3); test: ISG reporter induction in 293-Dual mSTING reporter cells (QUANTI-Blue); assay type: cell-based; settings: 293-Dual mSTING cells, overnight incubation
T1 construct: host or cells: 293-Dual (HEK293-derived) reporter cells
T1 sequence (Q3TBT3 1-378): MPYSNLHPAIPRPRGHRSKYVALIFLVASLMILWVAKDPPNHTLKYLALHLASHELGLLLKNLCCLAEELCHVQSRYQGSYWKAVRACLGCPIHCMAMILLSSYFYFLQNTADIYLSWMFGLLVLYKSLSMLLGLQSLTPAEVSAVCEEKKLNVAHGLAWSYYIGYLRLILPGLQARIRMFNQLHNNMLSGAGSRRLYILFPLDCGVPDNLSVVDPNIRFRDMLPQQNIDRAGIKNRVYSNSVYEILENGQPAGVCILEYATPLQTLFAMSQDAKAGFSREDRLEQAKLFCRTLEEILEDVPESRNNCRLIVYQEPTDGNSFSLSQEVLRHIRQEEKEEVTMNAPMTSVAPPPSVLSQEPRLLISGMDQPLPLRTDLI
Description: (§1) Certain STING compounds of the disclosure were evaluated in an in vitro cell based assay.
(§2) 293-Dual hSTING-R232 and mSTING cells (Invivogen) were seeded at 25,000 cells/well (50 ul) and co-cultured with STING agonists (2× concentration, 50 ul) in clear, half-area, 96-well polystyrene plates. Cells and test samples were prepared in DMEM supplemented with 10% FBS, Glutamax, and PenStrep. After overnight incubation at 37 C in a CO2 incubator, 20 ul of supernatant was added to QUANTI-Blue detection reagent (Invivogen). After one hour incubation at 37 C, plates were read at 640/650 nm on EnVision plate reader (PerkinElmer). OD values were plotted by log(agonist) vs. response, variable slope, four parameter curve fit (Log transform) using GraphPad Prism software to determine EC50 values.

hSTING-R232 = biological target: T2, hSTING-R232 (Homo sapiens, UniProt Q86WV6, H232R); test: ISG reporter induction in 293-Dual hSTING-R232 reporter cells (QUANTI-Blue); assay type: cell-based; settings: 293-Dual hSTING-R232 cells, overnight incubation
T2 construct: host or cells: 293-Dual (HEK293-derived) reporter cells
Description: as §1, §2

hSTING WT [1] = biological target: T3, hSTING WT (Homo sapiens, UniProt Q86WV6); test: Surface plasmon resonance assay; assay type: binding; settings: read-out: hSTING WT SPR (Kd)
Description: Surface plasmon resonance assay experimental methods were followed based on the published methods described in Pan et al., Science, 2020 369, eaba6098. (“A” means EC50≤20 nM).

hSTING WT [2] = biological target: T3, hSTING WT; test: Thermal shift assay (DSF); assay type: binding; design: unit not given here; settings: compound at 3.12 uM
Excerpt: Thermal shift assay experimental methods were followed based on the published methods described in Ramanjulu et al. Nature, 2018, 564, 439.

T2 sequence (Q86WV6 whole entry H232R): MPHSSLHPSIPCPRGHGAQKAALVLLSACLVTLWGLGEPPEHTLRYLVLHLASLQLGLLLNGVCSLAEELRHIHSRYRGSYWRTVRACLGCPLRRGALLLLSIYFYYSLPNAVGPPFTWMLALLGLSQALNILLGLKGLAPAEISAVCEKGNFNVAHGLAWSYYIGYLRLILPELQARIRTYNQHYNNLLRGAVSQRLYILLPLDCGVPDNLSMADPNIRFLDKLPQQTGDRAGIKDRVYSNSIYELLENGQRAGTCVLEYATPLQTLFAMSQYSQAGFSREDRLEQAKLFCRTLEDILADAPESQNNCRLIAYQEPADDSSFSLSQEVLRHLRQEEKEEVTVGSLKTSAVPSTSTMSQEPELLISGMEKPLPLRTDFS
T3 sequence (Q86WV6 155-341 H232R limits assumed): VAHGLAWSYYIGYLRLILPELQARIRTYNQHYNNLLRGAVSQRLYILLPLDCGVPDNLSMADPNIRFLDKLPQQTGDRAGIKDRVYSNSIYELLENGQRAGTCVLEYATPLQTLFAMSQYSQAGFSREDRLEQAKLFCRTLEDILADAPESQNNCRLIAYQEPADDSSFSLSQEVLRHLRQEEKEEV

Row | Structure (SMILES) | EC50 (mSTING) [nM] | EC50 (hSTING-R232) [nM] | Kd (hSTING WT [1]) [nM] | hSTING WT DSF (delta TmD @ 3.12 uM) (hSTING WT [2])
1 | COc1cc2sc(C(=O)CC(C)(C)C(=O)O)cc2c(F)c1OCCCOc1c(OC)cc2sc(C(=O)CC(C)(C)C(=O)NCCN)cc2c1F [Compound 18] | > 150 | > 150 | – | –
2 | COc1cc2sc(C(=O)CC(C)(C)C(=O)O)cc2c(C)c1OCCCOc1c(OC)cc2sc(C(=O)CP(=O)(O)O)cc2c1C [Compound 34] | > 150 | > 150 | – | –
3 | COc1cc2cc(C(=O)CCC(=O)O)ccc2c(F)c1OCCCOc1c(OC)cc2sc(C(=O)CC(C)(C)C(=O)O)cc2c1F [Compound 16, 4-(5-(3-((6-(3-Carboxypropanoyl)-1-fluoro-3-methoxynaphthalen-2-yl)oxy)propoxy)-4-fluoro-6-methoxybenzo[b]thiophen-2-yl)-2,2-dimethyl-4-oxobutanoic acid] | > 150 | > 150 | – | –
4 | COc1cc2sc(/C=C/CC(=O)O)cc2c(F)c1OCCCOc1c(OC)cc2sc(C(=O)CC(C)(C)C(=O)O)cc2c1F [Compound 11, (E)-4-(5-(3-((2-(3-carboxy-3-methylbutanoyl)-4-fluoro-6-methoxybenzo[b]thiophen-5-yl)oxy)propoxy)-4-fluoro-6-methoxybenzo[b]thiophen-2-yl)but-3-enoic acid] | ≤ 50 | ≤ 50 | – | –
5 | COc1cc2sc(C(=O)CC(C)(C)C(=O)O)cc2c(F)c1OCCCOc1c(OC)cc2sc(C3CC3CC(=O)O)cc2c1F (centres unmarked) [Compound 12, 4-(5-(3-((2-(2-(carboxymethyl)cyclopropyl)-4-fluoro-6-methoxybenzo[b]thiophen-5-yl)oxy)propoxy)-4-fluoro-6-methoxybenzo[b]thiophen-2-yl)-2,2-dimethyl-4-oxobutanoic acid] | 50 to 150 | > 150 | – | –
6 | COc1cc2sc(C(=O)CC(C)(C)C(=O)O)cc2c(F)c1OCCCOc1ccc2cc(C(=O)CCC(=O)O)ccc2c1 [Compound 13, 4-(5-(3-((6-(3-Carboxypropanoyl)naphthalen-2-yl)oxy)propoxy)-4-fluoro-6-methoxybenzo[b]thiophen-2-yl)-2,2-dimethyl-4-oxobutanoic acid] | 50 to 150 | 50 to 150 | – | –
7 | COc1cc2sc(C(=O)CC(C)(C)C(=O)O)cc2c(F)c1OCCCOc1ccc2cc(C(=O)CCC(=O)O)ccc2c1F [Compound 15, 4-(5-(3-((6-(3-Carboxypropanoyl)-1-fluoronaphthalen-2-yl)oxy)propoxy)-4-fluoro-6-methoxybenzo[b]thiophen-2-yl)-2,2-dimethyl-4-oxobutanoic acid] | > 150 | > 150 | – | –
8 | COc1cc2sc(C(=O)CC(C)(C)C(=O)O)cc2c(F)c1OCCCOc1c(OC)cc2sc(C(=O)CC(C)(C)P(=O)(O)O)cc2c1F [Compound 9, 4-(4-Fluoro-5-(3-((4-fluoro-6-methoxy-2-(3-methyl-3-phosphonobutanoyl)benzo[b]thiophen-5-yl)oxy)propoxy)-6-methoxybenzo[b]thiophen-2-yl)-2,2-dimethyl-4-oxobutanoic acid] | > 150 | > 150 | – | –
9 | COc1cc2sc(C(=O)CC(C)(C)C(=O)O)cc2c(F)c1OCCCOc1c(OC)cc2sc(C(=O)CS(=O)(=O)O)cc2c1F [Compound 1, 4-(4-Fluoro-5-(3-((4-fluoro-6-methoxy-2-(2-sulfoacetyl)benzo[b]thiophen-5-yl)oxy)propoxy)-6-methoxybenzo[b]thiophen-2-yl)-2,2-dimethyl-4-oxobutanoic acid] | 50 to 150 | > 150 | ≤ 20 | 20
10 | COc1cc2nc(C(=O)CCC(=O)O)ccc2c(F)c1OCCCOc1c(OC)cc2sc(C(=O)CC(C)(C)C(=O)O)cc2c1F [Compound 23, 4-(5-(3-((2-(3-Carboxypropanoyl)-5-fluoro-7-methoxyquinolin-6-yl)oxy)propoxy)-4-fluoro-6-methoxybenzo[b]thiophen-2-yl)-2,2-dimethyl-4-oxobutanoic acid] | ≤ 50 | ≤ 50 | – | –
11 | COc1cc2sc(C(=O)CC(C)(C)C(=O)O)cc2c(F)c1OCCCOc1c(OC)cc2sc(C(=O)CP(=O)(O)O)cc2c1F [Compound 6, 4-(4-Fluoro-5-(3-((4-fluoro-6-methoxy-2-(2-phosphonoacetyl)benzo[b]thiophen-5-yl)oxy)propoxy)-6-methoxybenzo[b]thiophen-2-yl)-2,2-dimethyl-4-oxobutanoic acid] | ≤ 50 | ≤ 50 | ≤ 20 | 20
12 | COc1cc2sc(C(=O)CCP(=O)(O)O)cc2c(F)c1OCCCOc1c(OC)cc2sc(C(=O)CC(C)(C)C(=O)O)cc2c1F [Compound 21] | ≤ 50 | > 150 | – | –
13 | COC(=O)C(C)(C)CC(=O)c1cc2c(F)c(OCCCOc3c(OC)cc4sc(C(=O)CS(=O)(=O)O)cc4c3F)c(OC)cc2s1 [Compound 2, 2-(4-Fluoro-5-(3-((4-fluoro-6-methoxy-2-(4-methoxy-3,3-dimethyl-4-oxobutanoyl)benzo[b]thiophen-5-yl)oxy)propoxy)-6-methoxybenzo[b]thiophen-2-yl)-2-oxoethane-1-sulfonic acid] | 50 to 150 | > 150 | – | –
14 | COc1cc2sc(/C=C/CC(=O)O)cc2c(F)c1OCCCOc1c(OC)cc2sc(/C=C/CC(=O)O)cc2c1F [Compound 33] | > 150 | > 150 | – | –
15 | COc1cc2sc(CCP(=O)(O)O)cc2c(F)c1OCCCOc1c(OC)cc2sc(C(=O)CC(C)(C)C(=O)O)cc2c1F [Compound 19] | > 150 | > 150 | – | –
16 | COc1cc2sc(C(=O)CCS(=O)(=O)O)cc2c(F)c1OCCCOc1c(OC)cc2sc(C(=O)CC(C)(C)C(=O)O)cc2c1F [Compound 14, 4-(4-fluoro-5-(3-((4-fluoro-6-methoxy-2-(3-sulfopropanoyl)benzo[b]thiophen-5-yl)oxy)propoxy)-6-methoxybenzo[b]thiophen-2-yl)-2,2-dimethyl-4-oxobutanoic acid] | ≤ 50 | > 150 | – | –
17 | COc1cc2sc(C(=O)CCC(=O)O)cc2c(F)c1OCCCOc1c(OC)cc2sc(C(=O)CP(=O)(O)O)cc2c1F [Compound 20] | ≤ 50 | ≤ 50 | – | –
18 | COc1cc2sc(C(=O)CC(C)(C)C(=O)O)cc2c(F)c1OCCCOc1c(OC)cc2sc(C(=O)CC(C)(C)C(=O)NS(=O)(=O)CCN)cc2c1F [Compound 17, 4-(5-(3-((2-(4-((2-Aminoethyl)sulfonamido)-3,3-dimethyl-4-oxobutanoyl)-4-fluoro-6-methoxybenzo[b]thiophen-5-yl)oxy)propoxy)-4-fluoro-6-methoxybenzo[b]thiophen-2-yl)-2,2-dimethyl-4-oxobutanoic acid] | > 150 | > 150 | – | –
19 | COc1cc2cc(C(=O)CCC(=O)O)ccc2cc1OCCCOc1c(OC)cc2sc(C(=O)CC(C)(C)C(=O)O)cc2c1F [Compound 22] | > 150 | > 150 | – | –
20 | COC(=O)C(C)(C)CC(=O)c1cc2c(F)c(OCCCOc3c(OC)cc4sc(C(=O)CC(C)(C)P(=O)(O)O)cc4c3F)c(OC)cc2s1 [Compound 10] | > 150 | > 150 | – | –
21 | COc1cc2sc(C(=O)CC(C)(C)C(=O)O)cc2c(F)c1OCCCOc1c(OC)cc2sc(C(=O)CP(=O)(OC)OC)cc2c1F [Compound 4, 4-(5-(3-((2-(2-(Dimethoxyphosphoryl)acetyl)-4-fluoro-6-methoxybenzo[b]thiophen-5-yl)oxy)propoxy)-4-fluoro-6-methoxybenzo[b]thiophen-2-yl)-2,2-dimethyl-4-oxobutanoic acid] | 50 to 150 | > 150 | – | –
22 | COC(=O)C(C)(C)CC(=O)c1cc2c(F)c(OCCCOc3c(OC)cc4sc(C(=O)CP(=O)(OC)OC)cc4c3F)c(OC)cc2s1 [Compound 3, Methyl 4-(5-(3-((2-(2-(dimethoxyphosphoryl)acetyl)-4-fluoro-6-methoxybenzo[b]thiophen-5-yl)oxy)propoxy)-4-fluoro-6-methoxybenzo[b]thiophen-2-yl)-2,2-dimethyl-4-oxobutanoate] | > 150 | > 150 | – | –
23 | COc1cc2sc(/C=C/CC(=O)O)cc2c(F)c1OCCCOc1c(OC)cc2sc(C(=O)CP(=O)(O)O)cc2c1F [Compound 32] | > 150 | 50 to 150 | – | –
24 | COC(=O)C(C)(C)CC(=O)c1cc2c(F)c(OCCCOc3c(OC)cc4sc(C(=O)CP(=O)(O)O)cc4c3F)c(OC)cc2s1 [Compound 5, (2-(4-Fluoro-5-(3-((4-fluoro-6-methoxy-2-(4-methoxy-3,3-dimethyl-4-oxobutanoyl)benzo[b]thiophen-5-yl)oxy)propoxy)-6-methoxybenzo[b]thiophen-2-yl)-2-oxoethyl)phosphonic acid] | 50 to 150 | 50 to 150 | – | −0.1
